Experimental data published in US10261017B2, “Methods for detecting and categorizing skin sensitizers” (University of Mississippi, priority 2014, dated 2019).
Structures can show the parent of a compound that is named as a salt. Where two headings read alike, the source gives them in different places.

Tests used:
[1] = cited from earlier work; for LLNA EC3: reported results (Table 7); for LLNA (EC3): effective concentration, published literature (Table 1); for LLNA Classification: published literature
[2] = test system: thiol peptide; conditions: cited from earlier work; for Cys-DPRA, percentage of thiol peptide depleted: adopted from the literature
[3] = test system: ARE-dependent gene activity in a recombinant cell line; conditions: cited from earlier work
[4] = Microplate spectrophotometric method (DCYA assay), fluorescence end-point; conditions: for DCYA 100-RI: RI = reactivity index, 2 equiv. electrophile, pH 10 buffer; for DCYA binary classification: FN: false negative; for DCYA binary classification: FP: false positive; for DCYA binary classification: TN: true negative; for DCYA binary classification: TP: true positive, positive if 100-RI <95; for DCYA assay reactivity / classification in words: microplate spectrophotometric method
[5] = test system: thiol peptide; experiment: Cys-DPRA (Direct Peptide Reactivity Assay), literature data; conditions: for Cys-DPRA binary classification: FN: false negative; for Cys-DPRA binary classification: FP: false positive; for Cys-DPRA binary classification: TN: true negative; for Cys-DPRA binary classification: TP: true positive
[6] = NMR method: depletion of electrophile signal on reaction with DCYA; conditions: for Conversion at t30 (depletion of electrophile signal): at 30 min; for Conversion at t30 (depletion of electrophile signal) / NMR Method conversion: 1 equiv. DCYA; for NMR Classification: based on depletion of electrophile signal at 30 min; for NMR Method conversion: conversion of test chemical at 90 min, CDCl3; for Conversion rate: 0.1 M DCYA, 0.1 M L-carvone
Text: The described example can be applied to pure chemicals and mixtures. The method includes the acquisition of at least one NMR spectrum, mixing an electrophile and a nucleophile to acquire an array of control spectra and an addition of catalyst to record an array of reaction spectra. It also includes the quantification of at least one signal and the comparison of the signal with a control and the classification of the reaction based on the depletion of potential sensitizer based on the quantified residual signal.
2,5-Dimethylfuran was used as internal standard. When necessary, characterization of the product(s) formed during the reaction(s) was performed by homonuclear ^1H connectivities using 2D-COSY experiments. […] Two- and three bond ^1H-^13C connectivities were determined by gradient-HMBC experiments in which the evolution period for long-range ^1H-^13C coupling constants was optimized for a ^2,3JC,H of 8 Hz. Through-space ^1H connectivities were determined using a NOESY experiment with a mixing time of 0.450 s. […] Toronto, Canada].
In a 3 mm NMR tube, 1 volume of DCYA (100) mM in CDCl3) was mixed with one volume of sensitizer (100 mM in CDCl3) to give a final concentration of 50 mM for both DCYA and the sensitizer. Control ^1H NMR spectra (reference spectra) were recorded at regular intervals of for a minimum of 5 min. […] All spectra were recorded at constant temperature. All experiments were conducted using the manufacturer's standard presaturation pulse programs and experimental conditions were chosen as explained in NMR spectroscopy section. The progress of the reaction was followed by the diminished peak areas of the resonances for the signal of interest. The spectra were phased, referenced, and integrated using NMR data elaboration software. The structural characterizations of the resulting adducts were confirmed by conducting additional 2D-NMR experiments when necessary.
Covalent reaction of DCYA with carvone is dependent on the activation of the nucleophilic group (ex. sulfhydryl group to the reactive thio-anion) under basic conditions. This reaction is strongly dependent on the nature of the nucleophile and may be modulated by careful choice of the model nucleophile and the reaction conditions.
The control spectra are used as reference spectra (FIG. 3A). All the spectra were subjected to automatic phase and baseline correction using a Bernstein polynomial fit (order 3). After these two steps, all the spectra were integrated over the areas of interest. […] Both vinylic and adduct peak areas were normalized relative to the internal standard signal peaks. […] The concentrations of both electrophile and adduct were then plotted as percentage against time (in minutes). (FIG. 5).

[7] = reported results from the literature

| SMILES | LLNA EC3 [1] | Cys-DPRA % Pept. remain. [2, 7] | KeratinoSens ™ EC3 ([3]; reported results (Table 7)) | DCYA 100-RI [4] | Cys-DPRA binary classification: FN [5] | Cys-DPRA binary classification: FP [5] | Cys-DPRA binary classification: TN [5] | Cys-DPRA binary classification: TP [5] | DCYA binary classification: FN [4] | DCYA binary classification: FP [4] | DCYA binary classification: TN [4] | DCYA binary classification: TP [4] | LLNA Classification [1] | also measured |
| --- | --- | --- | --- | --- | --- | --- | --- | --- | --- | --- | --- | --- | --- | --- |
| O=C1OC(=O)C2CCCCC12 (stereo not shown) [1,2-Cyclohexanedicarboxylic anhydride] | 0.84% | 84.3% | >2000 µM | 104.6 |  |  |  |  |  |  |  |  |  |  |
| CCC=CC=CC=O [2,4-Heptadienal] | 4% | 2.7% | 21.91 µM | 54.1 | 0 | 0 | 0 | 1 | 0 | 0 | 0 | 1 |  |  |
| Clc1ccccc1 [Chlorobenzene] |  |  |  | 97.8 | 0 | 0 | 1 | 0 | 0 | 0 | 1 | 0 |  | Cys-DPRA % Pept. remain. [2]: 99.6%; KeratinoSens ™ EC3 [3]: >2000 µM |
| OCC=Cc1ccccc1 [Cinnamyl alcohol] | 21% | 100% | >2000 µM | 105.0 |  |  |  |  |  |  |  |  |  |  |
| CCOC(=O)/C=C\C(=O)OCC [Diethyl maleate] | 5.8% | 0% | 82.85 µM | −8.84 | 0 | 0 | 0 | 1 | 0 | 0 | 0 | 1 |  |  |
| O=c1c(-c2ccccc2)c1-c1ccccc1 [Diphenyl cyclopropenone] | 0.003% | 1.2% | 1.84 µM | 96.3 | 0 | 0 | 0 | 1 | 1 | 0 | 0 | 0 |  |  |
| C=CC(=O)OCC [Ethyl acrylate] | 28% | 3.6% | 231.19 µM | −0.7 | 0 | 0 | 0 | 1 | 0 | 0 | 0 | 1 | Weak | Conversion at t30 (depletion of electrophile signal) [6]: 92%; NMR Classification [6]: Strong; NMR Method conversion ([6]; 0.1 equiv. DBN): 93%; LLNA (EC3) [1]: 28%; Cys-DPRA, percentage of thiol peptide depleted [2]: 96.4%; KeratinoSens ™ EC3 ([3]; published literature (Table 1)): 231.19 µM |
| C=C(C)[C@@H]1CC=C(C)C(=O)C1 [L-Carvone] | 13% |  |  | 88.4 | 0 | 0 | 0 |  | 0 | 0 | 0 | 1 | Moderate | Depletion ([6]; 0.05 equivalents DBN, chloroform): 23%; Depletion ([6]; 0.1 equivalents DBN, chloroform): 35%; Depletion ([6]; 0.2 equivalents DBN, chloroform): 28%; Conversion rate ([6]; DMSO, 0.1 equiv. DBN): 42%; Conversion rate ([6]; acetonitrile, 0.1 equiv. DBN): 47%; Reaction between DCYA and carvone ([6]; aqueous pH 10 buffer (5% v/v) in acetonitrile, after 90 minutes): 42%; Conversion at t30 (depletion of electrophile signal) [6]: 16%; NMR Classification [6]: Weak; NMR Method conversion ([6]; 0.1 equiv. DBN): 16%; Electrophile depletion ([6]; excess of DCYA, chloroform, 0.1 equiv. DBN): around 37%; Depletion ([6]; excess of electrophile, 2 equiv., chloroform, 0.1 equiv. DBN): 21%; Depletion ([6]; excess of electrophile, 4 equiv., chloroform, 0.1 equiv. DBN): 8%; Cys-DPRA, percentage of thiol peptide depleted [2]: 26.3^20%; KeratinoSens ™ EC3 ([3]; published literature (Table 1)): 258.71^20 μM |
| CC(C=O)Cc1ccc(C(C)(C)C)cc1 (stereo not shown) [Lilial] |  | 86% | >2000 µM |  | 0 | 1 | 0 | 0 | 1 | 0 | 0 | 0 |  | DCYA assay reactivity / classification in words [4]: non-reactive |
| C=C(C)C1CC=C(C=O)CC1 (stereo not shown) [Perillaldehyde] | 8.1% | 68.1% | 61.85 µM | 95.8 | 0 | 0 | 0 | 1 | 1 | 0 | 0 | 0 | Moderate | NMR assay reactivity / classification in words [6]: moderate/low electrophilic behavior; Conversion at t30 (depletion of electrophile signal) [6]: 28%; NMR Classification [6]: Weak-moderate; NMR Method conversion ([6]; 0.1 equiv. DBN): 28%; LLNA (EC3) [1]: 8.1%; Cys-DPRA, percentage of thiol peptide depleted [2]: 31.9%; KeratinoSens ™ EC3 ([3]; published literature (Table 1)): 61.85 µM |
| COc1cc(C=O)ccc1O [Vanillin] |  | 96.8% | >2000 µM | 106.4 | 0 | 0 | 1 | 0 | 0 | 0 | 1 | 0 |  |  |
| CC/C=C\CCCCC=O [cis-6-Nonenal] |  | 92% | 687.67 µM | 107.3 | 0 | 0 | 0 | 1 | 1 | 0 | 0 | 0 |  |  |
| Oc1ccc(O)cc1 [p-Hydroquinone] | 0.11% | 16.7% | 51.29 µM | 127.1 |  |  |  |  |  |  |  |  | Strong | NMR assay reactivity / classification in words [6]: almost unreactive; Conversion at t30 (depletion of electrophile signal) [6]: 5%; NMR Classification [6]: Non^$; NMR Method conversion ([6]; 0.1 equiv. DBN): 5%; LLNA (EC3) [1]: 0.11%; Cys-DPRA, percentage of thiol peptide depleted [2]: 83.3%; Cys-DPRA reactivity in words ([2]; literature): non-reactive; KeratinoSens ™ EC3 ([3]; published literature (Table 1)): 51.29 µM; DCYA assay reactivity / classification in words [4]: non-reactive |
| CCC/C=C/C=O [trans-2-Hexenal] | 5.5% | 2.1% | 374.57 µM | 29.9 | 0 | 0 | 0 | 1 | 0 | 0 | 0 | 1 | moderate sensitizer |  |
